Results published in patent US20200383985A1, “Inhibitors of Protease Activated Receptor-2” (Endosome Therapeutics, Inc., priority 2017, published 2020).
pIC50: −log10 of the molar value. Read-outs that look alike come from different tables or passages of the source.

Columns and labels:
Assay type in all cases: cell-based
PAR2 = target: T1, PAR2 (Homo sapiens, UniProt P55085); assay: IP1 accumulation assay in HT-29 cells (endogenous PAR2); conditions: 2F (300 nM)-induced IP1, HT-29 cells; for pIC50: read-out: HT-29 300 nM 2F (IC50); for IC50: read-out: HT-29 300 nM 2F pIC50 ± SEM (converted)
T1 construct: HT-29 cells and HEK293 cells, which express endogenous PAR2; endogenous in cells; host or cells: HT-29
T1 sequence (P55085 26-397): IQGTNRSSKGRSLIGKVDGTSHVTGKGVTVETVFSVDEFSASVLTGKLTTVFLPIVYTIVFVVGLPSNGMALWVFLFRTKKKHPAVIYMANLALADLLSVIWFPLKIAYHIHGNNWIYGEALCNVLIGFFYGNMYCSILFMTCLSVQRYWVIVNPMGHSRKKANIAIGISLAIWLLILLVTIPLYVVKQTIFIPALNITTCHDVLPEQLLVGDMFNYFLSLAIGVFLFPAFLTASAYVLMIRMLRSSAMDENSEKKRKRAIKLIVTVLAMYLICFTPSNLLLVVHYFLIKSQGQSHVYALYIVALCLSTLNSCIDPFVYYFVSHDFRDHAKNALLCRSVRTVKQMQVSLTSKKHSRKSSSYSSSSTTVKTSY
Method: (§1) KNRK-hPAR2, KNRK or HT-29 cells were seeded at a density of 50×10^3 cells/well in a clear poly-d-lysine coated 96 well tissue culture plate. Following 24 h incubation at 37° C. and 5% CO2, media was removed and replaced with 80 μl IP1 stimulation buffer (10 mM HEPES, 1 mM CaCl2, 0.5 mM MgCl2, 4.2 mM KCl, 146 mM NaCl, 5.5 mM glucose, 50 mM LiCl). Following stimulation buffer addition, the wells received 10 μl of 10× antagonists or DMSO vehicle. All plates were further incubated at 37° C., 5% CO2 for 30 min. 10 μl of 2F or ATP was added to the plates and further incubated for 40 min. Following incubation, stimulation buffer was quickly removed by aspiration and replaced with 25 μl lysis buffer (IP-One HTRF® assay kit, Cisbio). Following incubation of the lysates at 37° C., 5% CO2 for 10′, 10 μl lysate was transferred to a 384-well OptiPlate (PerkinElmer) and detected using the IP-One HTRF® assay kit (Cisbio).
(§2) Compounds of the invention (added at 10×concentrations in a 10 μL volume) were incubated for 30 min prior to the addition of 10 μM ATP or 100 nM or 300 nM PAR2 agonist (2F; EC80, added at 10×concentrations in a 10 μL volume) and then further incubated for 40 min. After lysis, the inositol phosphate 1 was quantified with IP-One HTRF® assay kit, Cisbio. The data was analysed with Prism, GraphPad to calculate the IC50 values, shown below in Table 1.
(§3) Inhibition of PAR2 signaling with known PAR2 inhibitor I-343 (FIG. 14A) was investigated in HT-29 cells and HEK293 cells, which express endogenous PAR2, and in KNRK cells expressing human (h) PAR2. Accumulation of inositol phosphate-1 (IP1) was measured in response to the PAR2-selective agonist 2-Furoyl-LIGRLO-NH2 (2F), an analogue of the trypsin-exposed tethered ligand, or trypsin.
(§4) KNRK-hPAR2, KNRK, HEK293, or HT-29 cells were seeded at a density of 50×10^3 cells/well onto clear 96-well plates (PerkinElmer). After 24 h of culture, medium was replaced with IP1 stimulation buffer (10 mM HEPES, 1 mM CaCl2, 0.5 mM MgCl2, 4.2 mM KCl, 146 mM NaCl, 5.5 mM glucose, 50 mM LiCl; 37° C., 5% CO2.). Cells were pre-incubated with the antagonist or vehicle for 30 min prior to the addition of agonist. Cells were then further incubated for 40 min. Stimulation buffer was […]

human (h) PAR2 = target: T2, human (h) PAR2 (Homo sapiens, UniProt P55085); assay: IP1 accumulation assay in KNRK-hPAR2 cells; conditions: for inhibition at 30 µM: 100 nM 2F, 30 μM of antagonist, read-out: KNRK-PAR2 100 nM 2F: ND (inhibition of 2F at 30 μM of antagonist)
T2 construct: expressed in transfected cells; host or cells: KNRK cells (KNRK-hPAR2)
T2 sequence (P55085 26-397): T1 sequence (P55085 26-397)
Method: as §1, §2, §3, §4

mouse DRG neurons = assay: Patch clamp rheobase of DRG neurons: protease-induced hyperexcitability of nociceptors

| Molecule | pIC50 (PAR2) | inhibition at 30 µM (human (h) PAR2) | other results |
| --- | --- | --- | --- |
| CC(C)CCC[C@@H](C)[C@H]1CCC2C3CCC4C[C@@H](OC(=O)C[C@H](NC(=O)CCOCCOCCOCCOCCOCCOCCOCCOCCNC(=O)Cn5cc(C(=O)N6CCN(C(=O)c7cn8nc(-c9ccc(F)cc9)cc(C(C)(C)C)c8n7)C(C)(C)C6)nn5)C(N)=O)CC[C@]4(C)C3CC[C@@]21C (stereo partly drawn) [Compound 12, (3S,10S,13R,17R)-10,13-dimethyl-17-((R)-6-methylheptan-2-yl)hexadecahydro-1H-cyclopenta[a]phenanthren-3-yl (32S)-1-(4-(4-(8-(tert-butyl)-6-(4-fluorophenyl)imidazo[1,2-b]pyridazine-2-carbonyl)-3,3-dimethylpiperazine-1-carbonyl)-1H-1,2,3-triazol-1-yl)-32-carbamoyl-2,30-dioxo-6,9,12,15,18,21,24,27-octaoxa-3,31-diazatetratriacontan-34-oate] | 6.08 | < 50% |  |
| CC(C)CCC[C@@H](C)[C@H]1CC[C@H]2[C@@H]3CC=C4C[C@@H](OC(=O)NCCCC[C@@H](NC(=O)CCOCCOCCOCCOCCOCCOCCOCCOCCOCCOCCOCCOCCNC(=O)Cn5cc(C(=O)N6CCN(C(=O)c7cn8nc(-c9ccc(F)cc9)cc(C(C)(C)C)c8n7)C(C)(C)C6)nn5)C(=O)NN)CC[C@]4(C)[C@H]3CC[C@]12C [Compound 17] | 5.25 | < 50% |  |
| CC(C)(C)c1cc(-c2ccc(F)cc2)nn2cc(C(=O)N3CCN(C(=O)c4cn(CC(=O)O)nn4)CC3(C)C)nc12 [Compound 2, 2-(4-(4-(8-(tert-butyl)-6-(4-fluorophenyl)imidazo[1,2-b]pyridazine-2-carbonyl)-3,3-dimethylpiperazine-1-carbonyl)-1H-1,2,3-triazol-1-yl)acetic acid] | 6.85 | < 50% | IC50 (PAR2): 138 nM |
| CN(C)CCCn1cc(C2=C(c3c[nH]c4ccccc34)C(=O)NC2=O)c2ccccc21 [GF109203X] |  |  | initial trypsin-induced hyperexcitability (mouse DRG neurons): prevented; persistent trypsin-induced hyperexcitability (mouse DRG neurons): not |
| CC(C)(C)c1cc(-c2ccc(F)cc2)cc2nc(C(=O)N3CCN(C(=O)CCC(=O)NC[C@H](O)[C@@H](O)[C@H](O)[C@H](O)CO)CC3(C)C)oc12 [Compound 4, 4-(4-(7-(tert-butyl)-5-(4-fluorophenyl)benzo[d]oxazole-2-carbonyl)-3,3-dimethylpiperazin-1-yl)-4-oxo-N-((2S,3R,4R,5R)-2,3,4,5,6-pentahydroxyhexyl)butanamide] |  | < 50% | IC50 (PAR2): > 10000 nM |
| CC(C)(C)c1cc(-c2ccc(F)cc2)nn2cc(C(=O)N3CCN(C(=O)CCS(=O)(=O)O)CC3(C)C)nc12 [Compound 1, 3-(4-(8-(tert-butyl)-6-(4-fluorophenyl)imidazo[1,2-b]pyridazine-2-carbonyl)-3,3-dimethylpiperazin-1-yl)-3-oxopropane-1-sulfonic acid] | 5.23 | < 50% |  |
| CC(C)(C)c1cc(-c2ccc(F)cc2)nn2cc(C(=O)N3CCN(C(=O)c4cn(CC(=O)NCCOCCOCCOCCOCCOCCO)nn4)CC3(C)C)nc12 [Compound 6, 2-(4-(4-(8-(tert-butyl)-6-(4-fluorophenyl)imidazo[1,2-b]pyridazine-2-carbonyl)-3,3-dimethylpiperazine-1-carbonyl)-1H-1,2,3-triazol-1-yl)-N-(17-hydroxy-3,6,9,12,15-pentaoxaheptadecyl)acetamide] | 6.01 | < 50% |  |
| CC(C)(C)c1cc(-c2ccc(F)cc2)nn2cc(C(=O)N3CCN(C(=O)[C@H]4CC[C@@H](NC(=O)[C@H](O)[C@@H](O)[C@@H](O)[C@H](O)C(N)=O)CC4)CC3(C)C)nc12 [Compound 7, (2R,3S,4R,5S)—N1-((1s,4S)-4-(4-(8-(tert-butyl)-6-(4-fluorophenyl)imidazo[1,2-b]pyridazine-2-carbonyl)-3,3-dimethylpiperazine-1-carbonyl)cyclohexyl)-2,3,4,5-tetrahydroxyhexanediamide] | 6.39 | < 50% | IC50 (PAR2): 406 nM |
| CC(C)CCC[C@@H](C)[C@H]1CC[C@H]2[C@@H]3CCC4CC(OC(=O)C[C@H](NC(=O)CCOCCOCCOCCOCCOCCOCCNC(=O)[C@H](CCCNC(=N)N)NC(=O)CCOCCOCCOCCOCCOCCOCCNC(=O)Cn5cc(C(=O)N6CCN(C(=O)c7cn8nc(-c9ccc(F)cc9)cc(C(C)(C)C)c8n7)C(C)(C)C6)nn5)C(N)=O)CC[C@]4(C)[C@H]3CC[C@]12C (stereo partly shown) [Compound 14] | 5.81 | < 50% |  |
| CC(C)CCC[C@@H](C)[C@H]1CCC2C3CCC4C[C@@H](OC(=O)C[C@H](NC(=O)CCOCCOCCOCCOCCOCCOCCOCCOCCNC(=O)CCCNC(=O)Cn5cc(C(=O)N6CCN(C(=O)c7cn8nc(-c9ccc(F)cc9)cc(C(C)(C)C)c8n7)C(C)(C)C6)nn5)C(N)=O)CC[C@]4(C)C3CC[C@@]21C (stereo partly drawn) [Compound 13, (3S,10S,13R,17R)-10,13-dimethyl-17-((R)-6-methylheptan-2-yl)hexadecahydro-1H-cyclopenta[a]phenanthren-3-yl (37S)-1-(4-(4-(8-(tert-butyl)-6-(4-fluorophenyl)imidazo[1,2-b]pyridazine-2-carbonyl)-3,3-dimethylpiperazine-1-carbonyl)-1H-1,2,3-triazol-1-yl)-37-carbamoyl-2,7,35-trioxo-11,14,17,20,23,26,29,32-octaoxa-3,8,36-triazanonatriacontan-39-oate] | 6.13 | < 50% |  |
| CC(C)(C)c1cc(-c2ccc(F)cc2)nn2cc(C(=O)N3CCN(C(=O)[C@H]4CC[C@@H](C(=O)NC[C@H](O)[C@@H](O)[C@H](O)[C@H](O)CO)CC4)CC3(C)C)nc12 [Compound 3, (1S,4R)-4-(4-(8-(tert-butyl)-6-(4-fluorophenyl)imidazo[1,2-b]pyridazine-2-carbonyl)-3,3-dimethylpiperazine-1-carbonyl)-N-((2S,3R,4R,5R)-2,3,4,5,6-pentahydroxyhexyl)cyclohexane-1-carboxamide] | 7.40 |  | IC50 (PAR2): 40.7 nM; IC50 (human (h) PAR2; 2F (100 nM)-induced IP1, KNRK-hPAR2 cells, read-out: KNRK-PAR2 100 nM 2F pIC50 ± SEM (converted)): > 10000 nM |
| CC(C)CCC[C@@H](C)[C@H]1CCC2C3CCC4C[C@@H](OC(=O)C[C@H](NC(=O)CCOCCOCCOCCOCCNC(=O)Cn5cc(C(=O)N6CCN(C(=O)c7cn8nc(-c9ccc(F)cc9)cc(C(C)(C)C)c8n7)C(C)(C)C6)nn5)C(N)=O)CC[C@]4(C)C3CC[C@@]21C (stereo partly drawn) [Compound 11, (3S,10S,13R,17R)-10,13-dimethyl-17-((R)-6-methylheptan-2-yl)hexadecahydro-1H-cyclopenta[a]phenanthren-3-yl (20S)-1-(4-(4-(8-(tert-butyl)-6-(4-fluorophenyl)imidazo[1,2-b]pyridazine-2-carbonyl)-3,3-dimethylpiperazine-1-carbonyl)-1H-1,2,3-triazol-1-yl)-20-carbamoyl-2,18-dioxo-6,9,12,15-tetraoxa-3,19-diazadocosan-22-oate] | 6.01 | < 50% |  |
| CC(C)c1ccc(Cn2ccc3c4c(N)nc(NC5CC5)nc4ccc32)cc1 [SCH79797] |  |  | rheobase response to trypsin (PAR1 antagonist) (mouse DRG neurons; 1 μM): did not affect; rheobase, antagonist alone (mouse DRG neurons; 1 μM): no effect; thrombin-induced immediate decrease in rheobase (mouse DRG neurons; thrombin 50 nM, 20 min, antagonist 1 μM, 10 min preincubation): prevented |
| thrombin |  |  | rheobase after protease (mouse DRG neurons; trypsin 50 nM 10 min, NE 390 nM 30 min, CS 500 nM 60 min, thrombin 50 nM 20 min, washed): immediate decrease in rheobase |
